Where two headings read alike, the source gives them in different places.
What was measured:
in vivo = details: C57BL/6, mouse
[1] = pharmacokinetics, summary regardless of species; assay type: in vivo, mice, hamsters, dogs, human; details: regardless of species or formulation
Description: Pharmacokinetic analysis of the mouse plasma samples was performed using standard procedures at Prolytic GmbH (Frankfurt, Germany). Hamster plasma samples were analyzed at Synovo GmbH (Tuebingen, Germany) using HPLC MS/MS (Agilent 1260 HPLC with Sciex API4500) with linear response for plasma concentrations between 15 nM and 33 µM (6.1 ng/ml to 13.5 μg/ml). Pharmacokinetic analyses of the dog plasma samples were performed at Pharmascience Inc. (Montreal, Canada) using an HPLC MS/MS method for the determination of zapnometinib plasma concentrations. The validated calibration range for this assay is from 0.6 μg/ml to […] for which all validation requirements were successfully evaluated. Regressions, calibration standard, quality control sample, animal sample result tables, acquisition methods and chromatograms were generated by Applied Biosystems Analyst^TM software, version 1.6.2. Plasma concentrations of zapnometinib of the human samples were determined at SGS Life Sciences (Bioanalysis Department, Wavre, Belgium) using a validated HPLC MS/MS method with a lower limit of quantification of 10 ng/ml for the analyte zapnometinib. Statistical analysis was performed by SGS (demography and safety analyses, exposure, and compliance) using SAS® version 9.4 (SAS Institute Inc., Cary, NC, United States).

[2] = Syrian hamsters
MEK1/2 = assay: phosphorylation of MEK and ERK in PMA-stimulated human PBMCs (Wes); details: 50 µg/ml 1 h, then 400 nM PMA 30 min
Description: PBMCs from healthy donors were isolated, treated with zapnometinib, stimulated with Phorbol-12-Mystrat-13-Acetat (PMA) and analyzed for the reduction of MEK and ERK phosphorylation.
PBMCs of 30 ml human blood were isolated using SepMate^TM tubes (Stemcell Technologies, Vancouver, Canada) by density gradient centrifugation according to manufacturer’s instructions. The PBMCs were then cultured in the plasma and treated with 50 µg/ml zapnometinib or DMSO for 1 h at 37°C and 5% CO2. Afterwards, the PBMCs were stimulated with 400 nM PMA (Sigma-Aldrich, St. Louis, Missouri, USA) for 30 minutes at 37°C and 5% CO2. After stimulation, the cells were washed twice with PBS and centrifuged 8 minutes at 300 x g at RT. The cells were then lysed in 1x RIPA buffer and analyzed with Wes™ for phosphorylation of ERK and MEK using specific antibodies as described in the Pharmacodynamic assessment to determine level of MEK inhibition section. […]
PBMCs of healthy human volunteers were treated for 1 h with 50 µg/ml zapnometinib or DMSO as solvent control and subsequently stimulated for 30 minutes with 400 nM PMA. Cell lysates of the PBMCs were then analyzed with Wes™ for phosphorylated and total protein, and the ratio was used to calculate the phosphorylation levels. […]

[3] = adverse events in healthy human volunteers (phase 1); assay type: in vivo; details: n = 8
Source text: Healthy men and women between 18 and 55 years of age (inclusive), who weighed at least 50 kg with a body mass index (BMI) between 18.0 and 31.0 kg/m^2 (inclusive) were enrolled in this study. Exclusion criteria were clinically significant illnesses, positive urine test for selected drugs of abuse, positive alcohol breath test at screening and upon check-in at the clinical site, positive hepatitis panel (including hepatitis B surface antigen [HBsAg] and anti-hepatitis C virus [HCV] antibodies), and positive screens for human immunodeficiency virus (HIV) antibody. This Phase 1 study was a randomized, double-blind, placebo-controlled study (clinicaltrials.gov: NCT04385420) consisting of two parts. Part 1 was a SAD study with 40 healthy volunteers who were randomized to active or placebo treatment in a 4:1 ratio (4 cohorts with n (Zapnometinib) = 8; n (placebo) = 2 in each cohort). Subjects receiving active treatment were treated with either 100 mg, 300 mg, 600 mg, or 900 mg zapnometinib. Part 2 was a MAD study with 30 healthy volunteers in three cohorts with the same randomization as in the SAD part (3 cohorts with n (Zapnometinib) = 8; n (placebo) = 2 in each cohort). Each subject in the MAD cohorts received doses of zapnometinib of either 100 mg, 300 mg, or 600 mg once daily for seven days, or placebo. The safety assessment in this study included monitoring of adverse events (AEs), clinical laboratory tests, electrocardiograms (ECG), vital signs, and physical examination. The study protocol and its amendments were reviewed by the Commissie voor Medische Ethiek ZNA, Antwerp, Belgium. This study was conducted in accordance with the ethical principles that have their origin in the Declaration of Helsinki and the International Council for Harmonization of Technical Requirements for Pharmaceuticals for Human Use (ICH) Note for Guidance on Good Clinical Practice (GCP) (CPMP/ICH/135/95) and with applicable local requirements.

Structure (SMILES): O=C(O)c1ccc(F)c(F)c1Nc1ccc(I)cc1Cl [zapnometinib, 2-(2-Chloro-4-Iodophenylamino)-N-3,4-Difluoro benzoic acid]
- half-life (in vivo): 8 h
- AUC (in vivo; po, 25 mg/kg): 1390 µg·h/mL
- Cmax (in vivo; po, 25 mg/kg): 69000 ± 24000 ng/mL
- Tmax (in vivo; po, 25 mg/kg, Tmax,1, mice, 25 mg/kg p.o., after first treatment): 2 h
- Tmax (in vivo; po, 25 mg/kg, Tmax,2, mice, 25 mg/kg p.o. twice, second dose at 8 h): 10 h
- time to maximum plasma concentration (Cmax) [1]: 2 to 4 h
- mean plasma concentration at 24 h ([2]; 15 mg/kg BID p.o.): 1000 ± 200 ng/mL
- plasma concentration 12 h after the first treatment ([2]; 15 mg/kg BID p.o., before second dose): 2000 ± 100 ng/mL
- mean plasma concentration at 24 h ([2]; 60 mg/kg OD p.o.): 200 ± 600 ng/mL
- phosphorylation of MEK (MEK1/2): directly prevents the phosphorylation of MEK
- Abdominal pain ([3]; 100 mg): 0 n (%)
- Back pain ([3]; 100 mg): 0 n (%)
- Diarrhea ([3]; 100 mg): 0 n (%)
- Dizziness ([3]; 100 mg): 0 n (%)
- Erythema ([3]; 100 mg): 0 n (%)
- Gastrointestinal Disorders ([3]; 100 mg): 0 n (%)
- Headache ([3]; 100 mg): 0 n (%)
- Hepatic enzyme increase ([3]; 100 mg): 0 n (%)
- Infections and Infestations ([3]; 100 mg): 0 n (%)
- Investigations ([3]; 100 mg): 0 n (%)
- Nasopharyngitis ([3]; 100 mg): 0 n (%)
- Neck pain ([3]; 100 mg): 0 n (%)
- Nervous System Disorders ([3]; 100 mg): 0 n (%)
- Respiratory, thoracic and Mediastinal Disorders ([3]; 100 mg): 0 n (%)
- Rhinorrhea ([3]; 100 mg): 0 n (%)
- Skin and Subcutaneous Disorders ([3]; 100 mg): 0 n (%)
- Throat irritation ([3]; 100 mg): 0 n (%)
- Abdominal pain ([3]; 300 mg): 0 n (%)
- Back pain ([3]; 300 mg): 1 (12.5) n (%)
- Diarrhea ([3]; 300 mg): 0 n (%)
- Dizziness ([3]; 300 mg): 0 n (%)
- Erythema ([3]; 300 mg): 1 (12.5) n (%)
- Gastrointestinal Disorders ([3]; 300 mg): 0 n (%)
- Headache ([3]; 300 mg): 3 (37.5) n (%)
- Hepatic enzyme increase ([3]; 300 mg): 1 (12.5) n (%)
- Infections and Infestations ([3]; 300 mg): 1 (12.5) n (%)
- Investigations ([3]; 300 mg): 1 (12.5) n (%)
- Nasopharyngitis ([3]; 300 mg): 1 (12.5) n (%)
- Neck pain ([3]; 300 mg): 1 (12.5) n (%)
- Nervous System Disorders ([3]; 300 mg): 3 (37.5) n (%)
- Respiratory, thoracic and Mediastinal Disorders ([3]; 300 mg): 1 (12.5) n (%)
- Rhinorrhea ([3]; 300 mg): 1 (12.5) n (%)
- Skin and Subcutaneous Disorders ([3]; 300 mg): 1 (12.5) n (%)
- Throat irritation ([3]; 300 mg): 0 n (%)
- Abdominal pain ([3]; 600 mg): 0 n (%)
- Back pain ([3]; 600 mg): 0 n (%)
- Diarrhea ([3]; 600 mg): 0 n (%)
- Dizziness ([3]; 600 mg): 0 n (%)
- Erythema ([3]; 600 mg): 0 n (%)
- Gastrointestinal Disorders ([3]; 600 mg): 0 n (%)
- Headache ([3]; 600 mg): 1 (12.5) n (%)
- Hepatic enzyme increase ([3]; 600 mg): 0 n (%)
- Infections and Infestations ([3]; 600 mg): 0 n (%)
- Investigations ([3]; 600 mg): 0 n (%)
- Nasopharyngitis ([3]; 600 mg): 0 n (%)
- Neck pain ([3]; 600 mg): 0 n (%)
- Nervous System Disorders ([3]; 600 mg): 1 (12.5) n (%)
- Respiratory, thoracic and Mediastinal Disorders ([3]; 600 mg): 0 n (%)
- Rhinorrhea ([3]; 600 mg): 0 n (%)
- Skin and Subcutaneous Disorders ([3]; 600 mg): 0 n (%)
- Throat irritation ([3]; 600 mg): 0 n (%)
- Abdominal pain ([3]; 900 mg): 1 (12.5) n (%)
- Back pain ([3]; 900 mg): 0 n (%)
- Diarrhea ([3]; 900 mg): 1 (12.5) n (%)
- Dizziness ([3]; 900 mg): 0 n (%)
- Erythema ([3]; 900 mg): 1 (12.5) n (%)
- Gastrointestinal Disorders ([3]; 900 mg): 2 (25.0) n (%)
- Headache ([3]; 900 mg): 1 (12.5) n (%)
- Hepatic enzyme increase ([3]; 900 mg): 0 n (%)
- Infections and Infestations ([3]; 900 mg): 0 n (%)
- Investigations ([3]; 900 mg): 0 n (%)
- Nasopharyngitis ([3]; 900 mg): 0 n (%)
- Neck pain ([3]; 900 mg): 0 n (%)
- Nervous System Disorders ([3]; 900 mg): 1 (12.5) n (%)
- Respiratory, thoracic and Mediastinal Disorders ([3]; 900 mg): 1 (12.5) n (%)
- Rhinorrhea ([3]; 900 mg): 0 n (%)
- Skin and Subcutaneous Disorders ([3]; 900 mg): 1 (12.5) n (%)
- Throat irritation ([3]; 900 mg): 1 (12.5) n (%)

From PMC9240354, “Pharmacokinetics, Pharmacodynamics and Antiviral Efficacy of the MEK Inhibitor Zapnometinib in Animal Models and in Humans” (Frontiers in Pharmacology, 2022)
